For one series, the system named is volunteer subjects. Put plainly: Heart rate effect of API combinations in volunteer subjects (Examples 1-3). The note with it: added API in combination with aminophylline and clenbuterol; small group of volunteer subjects.
In another series the test system is patient. Nature of the series: Clinical observation of heart rate in patients treated for other indications. The conditions noted are these: vertigo patient, after administering betahistine.
The subject of a further series is bradycardia patients. Nature of the series: API combinations tested on bradycardia patients (Examples 1-3). In kind it is in vivo, human. The conditions noted are these: observed on some patients. The procedure: During the testing of the 4-API combination on bradycardia patients, a few adverse side effects were observed on some patients. […] Therefore, a further study was conducted to determine how to avoid or reduce such side effects. […] To confirm this finding, clenbuterol was replaced by albuterol in the 4-API combination, which has a similar secondary therapeutic effect on heart rate. […] Daily electrocardiograms were used to monitor the bradycardia patients. […] With this improvement, the effectiveness of the treatment on bradycardia patients was retained while the undesired side effects were minimized or eliminated.

Experimental for volunteer subjects: To test this hypothesis, an experiment was conducted, where a combination of aminophylline and clenbuterol was administered to a small group of volunteer subjects. […] For each subject in this example, an electrocardiogram (ECG) was used to monitor heart rate and A-V conduction abnormalities.
To further improve the effect of the aminophylline and clenbuterol combination on the heart rate, various combinations with active pharmaceutical ingredients were investigated. Without being bound by theory, the hypothesis in this experiment was to utilize a combination of APIs with similar mechanism of action or with the same side effect (a secondary therapeutical effects) on heart as aminophylline and clenbuterol. Oryzanol, nicotinamide, or anisodamine in combination with aminophylline and clenbuterol was tested on a small group of volunteer subjects.
Nifedipine (a calcium channel blocker) was then selected and tested.
A combination of betahistine with aminophylline, clenbuterol, and nifedipine was then prepared and tested on a small group of healthy volunteer subjects.

For `CN1[C@H]2C[C@H](OC(=O)[C@H](CO)c3ccccc3)C[C@@H]1[C@@H](O)C2` [anisodamine], the “effect on heart rate compared with aminophylline and clenbuterol combination (Example 1)” value in the series on volunteer subjects is “no further improvement”.
For `CNCCc1ccccn1` [betahistine], the “effect on heart rate” value in the series with patient is listed as “noticeably increased”.
Regarding `CC(C)(C)NCC(O)c1cc(Cl)c(N)c(Cl)c1` (centres unmarked) [clenbuterol], in the series on bradycardia patients, the adverse side effects entry is given as “these side effects were related to clenbuterol”.
On to `NC(=O)c1cccnc1` [nicotinamide], for which the “effect on heart rate compared with aminophylline and clenbuterol combination (Example 1)” value with volunteer subjects was “no further improvement”.
Same read-out and setting: for Oryzanol the value was “no further improvement”.

Values taken from patent US11510924B2, “Deuterated pharmaceutical compositions and methods of treating cardiovascular diseases” (priority 2017, dated 2022).
